According to US20260207755A1, “TARGETED PROTEIN DEGRADERS OF INDOLEAMINE 2,3-DIOXYGENASE 1 (IDO1)” (Northwestern University, priority 2022, published 2026):

Legend:
[1] = molecular target: T1, 6×His tagged recombinant IDO1 protein (Homo sapiens, UniProt P14902); assay: BLI binary binding of IDO1-PROTAC to immobilized IDO1; details: IDO1 on Ni-NTA sensors, PBS+0.5% DMSO pH 7.4, 30° C
T1 construct: purchased Active Motif 81031
Method: (§1) FIGS. 13A-13C show mechanistic understanding of IDO1-PROTAC-induced IDO1 degradation. […] Data sets fitted globally with a 1:1 kinetic model. FIG. 13B is BLI sensorgrams showing association and dissociation of compound NU227164 to CRBN protein pre-immobilized on AR2G sensors. Binding experiments and data fitting were performed as described above. FIG. 13C is BLI sensorgrams for the IDO1-NU227164-CRBN ternary complex. IDO1 protein was loaded onto NiNTA biosensors. IDO1 was pre-immobilized on NI NTA sensors, and binding of compound NU227164 preincubated with CRBN was monitored in the association step; next, the sensors were moved into reaction buffer in order monitor dissociation. As indicated in the legend, each trace corresponds to a different concentration of NU227164. Data sets fitted globally with a 1:1 kinetic model. No binding was detected between CRBN and IDO1 in the absence of NU227164 (trace “CRBN only”).
(§2) FIGS. 14A-14C illustrate mechanistic understanding of DO1-PROTAC-induced IDO1 degradation. […] The equilibrium dissociation constant (Kd) was obtained by fitting the steady state data (Req as a function of compound concentration) with a 1:1 binding model. FIG. 14B is BLI sensorgrams showing association and dissociation of compound NU227168 to CRBN protein pre-immobilized on AR2G sensors. Binding experiments and data fitting were performed as described above. FIG. 14C is BLI sensorgrams for the IDO1-NU227168-CRBN ternary complex. IDO1 protein was loaded onto NiNTA biosensors. IDO1 was pre-immobilized on NI NTA sensors, and binding of compound NU227168 preincubated with CRBN was monitored in the association step; next, the sensors were moved into reaction buffer in order monitor dissociation. As indicated in the legend, each trace corresponds to a different concentration of NU227168. Data sets fitted globally with a 1:1 kinetic model. No binding was detected between CRBN and IDO1 in the absence of NU227168 (trace “CRBN only”).
(§3) FIGS. 15A-15C show mechanistic understanding of IDO1-PROTAC-induced IDO1 degradation. […] The equilibrium dissociation constant (Kd) was obtained by fitting the steady state data (Req as a function of compound concentration) with a 1:1 binding model. FIG. 15B is BLI sensorgrams showing association and dissociation of compound NU227191 to CRBN protein pre-immobilized on AR2G sensors. Binding experiments and data fitting were performed as described above. FIG. 15C is BLI sensorgrams for the IDO1-NU227191-CRBN ternary complex. IDO1 protein was loaded onto NiNTA biosensors. IDO1 was pre-immobilized on NI NTA sensors, and binding of compound NU227191 preincubated with CRBN was monitored in the association step; next, the sensors were moved into reaction buffer in order monitor dissociation. As indicated in the legend, each trace corresponds to a different concentration of NU227191. Data sets fitted globally with a 1:1 kinetic model. No binding was detected between CRBN and IDO1 in the absence of NU227191 (trace “CRBN only”).
(§4) FIGS. 16A-16C show mechanistic understanding of IDO1-PROTAC-induced IDO1 degradation. […] The equilibrium dissociation constant (Kd) was obtained by fitting the steady state data (Req as a function of compound concentration) with a 1:1 binding model. FIG. 16B is BLI sensorgrams showing association and dissociation of compound NU227199 to CRBN protein pre-immobilized on AR2G sensors. Binding experiments and data fitting were performed as described above. FIG. 16C is BLI sensorgrams for the IDO1-NU227199-CRBN ternary complex. IDO1 protein was loaded onto NiNTA biosensors. IDO1 was pre-immobilized on NI NTA sensors, and binding of compound NU227199 preincubated with CRBN was monitored in the association step; next, the sensors were moved into reaction buffer in order monitor dissociation. As indicated in the legend, each trace corresponds to a different concentration of NU227199. Data sets fitted globally with a 1:1 kinetic model. […]

cereblon (CRBN) protein = molecular target: T2, cereblon (CRBN) protein (Homo sapiens, UniProt Q96SW2); assay: BLI binary binding of IDO1-PROTAC to immobilized CRBN; details: CRBN amine coupled to AR2G sensors
T2 construct: purchased Sino Biological
T2 sequence (Q96SW2 whole entry): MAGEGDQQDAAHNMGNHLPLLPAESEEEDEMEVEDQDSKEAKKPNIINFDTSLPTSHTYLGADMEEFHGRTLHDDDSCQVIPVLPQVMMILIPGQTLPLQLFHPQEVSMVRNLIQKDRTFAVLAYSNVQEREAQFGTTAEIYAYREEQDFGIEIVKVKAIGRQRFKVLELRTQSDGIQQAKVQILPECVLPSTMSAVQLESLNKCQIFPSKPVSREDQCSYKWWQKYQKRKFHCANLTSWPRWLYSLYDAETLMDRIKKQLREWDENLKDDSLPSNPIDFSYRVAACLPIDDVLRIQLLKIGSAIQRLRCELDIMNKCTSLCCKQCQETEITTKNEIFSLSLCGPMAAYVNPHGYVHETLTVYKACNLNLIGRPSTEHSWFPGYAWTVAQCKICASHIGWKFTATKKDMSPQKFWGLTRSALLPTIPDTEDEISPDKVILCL
Method: as §1, §2, §3, §4

[2] = molecular target: T3, IDO1-PROTAC-CRBN ternary complex (Homo sapiens, UniProt P14902+Q96SW2); assay: BLI IDO1-PROTAC-CRBN ternary complex; format: binding; details: IDO1 on NiNTA sensors, PROTAC pre-incubated with 25 molar excess of CRBN, 1:1 kinetic model
T3 construct: purchased Active Motif (IDO1); Sino Biological (CRBN) 81031 (IDO1); none given for CRBN
T3 sequence (P14902 whole entry): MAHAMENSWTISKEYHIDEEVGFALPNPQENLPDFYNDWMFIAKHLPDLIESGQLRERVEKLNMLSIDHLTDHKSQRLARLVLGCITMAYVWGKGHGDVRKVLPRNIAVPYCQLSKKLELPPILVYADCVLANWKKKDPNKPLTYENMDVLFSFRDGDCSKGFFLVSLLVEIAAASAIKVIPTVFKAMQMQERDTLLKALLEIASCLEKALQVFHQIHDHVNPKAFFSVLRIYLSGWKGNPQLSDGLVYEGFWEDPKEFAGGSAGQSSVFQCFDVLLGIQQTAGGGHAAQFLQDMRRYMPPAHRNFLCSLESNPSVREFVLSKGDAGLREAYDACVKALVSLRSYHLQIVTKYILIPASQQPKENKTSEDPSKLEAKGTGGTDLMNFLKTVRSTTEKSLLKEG
T3 sequence (Q96SW2 whole entry): as the sequence (Q96SW2 whole entry) above
Method: as §1, §2, §3, §4

IDO1 in U87 cells = molecular target: T4, IDO1 in U87 cells (Homo sapiens, UniProt P14902); assay: PROTAC-induced IDO1 degradation in U87 cells by Western blot; format: cell-based; details: 24 h
T4 construct: endogenous in cells; host or cells: U87 cells, IDO1 induced with IFNγ
T4 sequence (P14902 whole entry): as the sequence (P14902 whole entry) above
Method: (§5) FIGS. 20A-20E show biological activity of compounds NU227326 and NU227327.
(§6) FIGS. 22A-22D show determination of IDO1 degrading potency of NU227326.
(§7) Protein samples were prepared by lysing the cells in RIPA buffer (Sigma-Aldrich, Cat #R0278) supplemented with protease and phosphatase inhibitors on ice for 30 min. Cell lysates were clarified by centrifugation at 16,000×g for 15 min at 4° C. Equal amounts of proteins as quantified by bicinchoninic acid assay (Pierce) were separated on an SDS-polyacrylamide gel electrophoresis and proteins were electrophoretically transferred onto a polyvinylidene fluoride (PVDF) membrane using a Trans-Blot Turbo Transfer System (Bio-Rad, Hercules, CA, USA). The blotted membranes were blocked for 1 h at room temperature in blocking buffer containing 5% (w/v) nonfat dry milk in Tris-buffered saline and 0.1% Tween 20 (TBS-T) followed by incubating the membranes overnight at 4° C. with primary antibodies against a target protein diluted at a standardized concentration in blocking buffer. […] The protein bands were detected using an enhanced chemiluminescence reagent (SuperSignal West Femto Maximum Sensitivity substrate) and blots were visualized with Bio-Rad ImageLab software on a Bio-Rad […] MP imaging system. […]

kynurenine in U87 cells = assay: Kynurenine assay (Ehrlich's reagent) in U87 cells; format: cell-based; details: indicated doses of compound
Method: as §5
Kynurenine levels in cell culture supernatants were measured using Erhlich's reagent. Briefly, cell culture supernatants were incubated with a 10% final concentration of trichloroacetic acid in Eppendorf tubes for 20 min at 60° C. to release kynurenine from cells and to precipitate proteins. After 20 minutes, samples were centrifuged for 20 min at 2500×g and supernatants were mixed with 20 mg/mL 4-dimethylamino benzaldehyde in acetic acid (Sigma Aldrich) at a 1:1 ratio and absorbance was measured at 480 nm using a plate reader.

IDO1 in GBM43 cells = molecular target: T5, IDO1 in GBM43 cells (Homo sapiens, UniProt P14902); assay: PROTAC-induced IDO1 degradation in GBM43 cells by Western blot; format: cell-based; details: 24 h
T5 construct: endogenous in cells; host or cells: GBM43 cells
T5 sequence (P14902 whole entry): as above
Method: as §5, §6, §7

[3] = levels of IDO1 quantified from Western blot

T1 sequence (P14902 whole entry): as above

Compound | Kd [1] [nM] | Kd (cereblon (CRBN) protein) [nM] | Kd [2] [nM] | IDO1 degradation by Western blotting (IDO1 in U87 cells; indicated concentrations) | DC50 (IDO1 in U87 cells; [3]) [nM] | concentration of kynurenine (kynurenine in U87 cells) | IDO1 degradation by Western blotting (IDO1 in GBM43 cells; indicated concentrations) | DC50 (IDO1 in GBM43 cells; [3]) [nM] | IDO1-PROTAC-CRBN Ternary Kd [2]
C[C@@H](C(=O)Nc1ccc(Cl)c(OC2CCN(C(=O)CN3CCC(CN4CCN(c5ccc6c(c5)C(=O)N(C5CCC(=O)NC5=O)C6=O)CC4)CC3)CC2)c1)[C@H]1CC[C@@H](c2ccnc3ccc(F)cc32)CC1 (stereo partly drawn) [NU227164, (2R)-N-(4-chloro-3-((1-(2-(4-((4-(2-(2,6-dioxopiperidin-3-yl)-1,3-dioxoisoindolin-5-yl)piperazin-1-yl)methyl)piperidin-1-yl)acetyl)piperidin-4-yl)oxy)phenyl)-2-((1s,4,S)-4-(6-fluoroquinolin-4-yl)cyclohexyl)propanamide] | 430 | 310 | 128 |  |  |  |  |  | 
C[C@@H](C(=O)Nc1ccc(Cl)c(OC2CCN(C(=O)CN3CCC(N4CCN(c5ccc6c(c5)C(=O)N(C5CCC(=O)NC5=O)C6=O)CC4)CC3)CC2)c1)[C@H]1CC[C@@H](c2ccnc3ccc(F)cc32)CC1 (stereo partly drawn) [NU227168, (2R)-N-(4-chloro-3-((1-(2-(4-(4-(2-(2,6-dioxopiperidin-3-yl)-1,3-dioxoisoindolin-5-yl)piperazin-1-yl)piperidin-1-yl)acetyl)piperidin-4-yl)oxy)phenyl)-2-((1s,4S)-4-(6-fluoroquinolin-4-yl)cyclohexyl)propanamide] | 340 | 190 | 87 |  |  |  |  |  | 
C[C@@H](C(=O)Nc1ccc(Cl)c(OC2CCN(C(=O)C3CCN(C[C@H]4CC[C@H](Nc5ccc6c(c5)C(=O)N(C5CCC(=O)NC5=O)C6=O)CC4)CC3)CC2)c1)[C@H]1CC[C@@H](c2ccnc3ccc(F)cc32)CC1 (stereo partly drawn) [NU227199, (2R)-N-(4-chloro-3-((1-(1-(((1r,4r)-4-((2-(2,6-dioxopiperidin-3-yl)-1,3-dioxoisoindolin-5-yl)amino)cyclohexyl)methyl)piperidine-4-carbonyl)piperidin-4-yl)oxy)phenyl)-2-((1s,4S)-4-(6-fluoroquinolin-4-yl)cyclohexyl)propanamide] | 2100 | 1600 | 689 |  |  |  |  |  | 
C[C@@H](C(=O)Nc1cccc(OC2CCN(C(=O)CN3CCC(N4CCN(c5ccc6c(c5)C(=O)N(C5CCC(=O)NC5=O)C6=O)CC4)CC3)CC2)c1)[C@H]1CC[C@@H](c2ccnc3ccc(F)cc32)CC1 (stereo partly drawn) [NU227326, (2R)-N-(3-((1-(2-(4-(4-(2-(2,6-dioxopiperidin-3-yl)-1,3-dioxoisoindolin-5-yl)piperazin-1-yl)piperidin-1l-yl)acetyl)piperidin-4-yl)oxy)phenyl)-2-((1s,4S)-4-(6-fluoroquinolin-4-yl)cyclohexyl)propanamide] | 140 | 380 | 321 | dose-dependent IDO1 degradation | 10.4 | strong reduction of cellular kynurenine | potent and dose-dependent degradation of IDO1 | 20.3 | 
C[C@@H](C(=O)Nc1cccc(OC2CCN(C(=O)CN3CCC(CN4CCN(c5ccc6c(c5)C(=O)N(C5CCC(=O)NC5=O)C6=O)CC4)CC3)CC2)c1)[C@H]1CC[C@@H](c2ccnc3ccc(F)cc32)CC1 (stereo partly drawn) [NU227327, (2R)-N-(3-((1-(2-(4-((4-(2-(2,6-dioxopiperidin-3-yl)-1,3-dioxoisoindolin-5-yl)piperazin-1-yl)methyl)piperidin-1-yl)acetyl)piperidin-4-yl)oxy)phenyl)-2-((1s,4S)-4-(6-fluoroquinolin-4-yl)cyclohexyl)propanamide] | 370 | 520 | 997 |  |  | strong reduction of cellular kynurenine |  |  | 
(2R)-N-(4-((1-(1-(2-((2-(2,6-dioxopiperidin-3-yl)-1,3-dioxoisoindolin-5-yl)amino)ethoxy)ethyl)piperidine-4-carbonyl)piperidin-4-yl)oxy)phenyl)-2-((1s,4S)-4-(6-fluoroquinolin-4-yl)cyclohexyl)propanamide [NU227191] | 12000 | 5100 |  |  |  |  |  |  | could not obtain
